This is an account of results in patent US20240383874A1, “BENZENE RING DERIVATIVE, AND COMPOSITION AND PHARMACEUTICAL USE THEREOF” (Xizang Haisco Pharmaceutical Co., Ltd., priority 2020, published 2024).

This assay concerns 22RV1 cells. Nature of the assay: Experiment 2 on inhibiting 22RV1 cell proliferation (7 days, CellTiter-Glo). In kind it is cell-based. As to conditions: 1% css-FBS phenol red-free medium, incubated with compound 7 days, read-out: IC50 values on proliferation inhibition of 22RV1 cells. The method, then:
Prostate cancer cells 22RV1 were purchased from ATCC, the cell medium was RPMI 1640+10% FBS, and the cells were cultured in an incubator at 37° C. under 5% CO2. On day 1, the cells in an exponential phase were collected. With a 1% css-FBS phenol red-free medium, the cell suspension was adjusted to a corresponding concentration, plated at 2000 cells/well and incubated overnight. On day 2, compounds at different concentrations were added, and the plate was placed in the incubator and incubated for further 7 days. After the incubation was completed, according to operation instructions for a CellTiter-Glo kit (Promega, G7573), 50 μL of CTG solution, which was already pre-melted and equilibrated to room temperature, was added to each well, and the mixtures were uniformly mixed for 2 min using a microplate shaker. The plate was placed at room temperature for 10 min, and then fluorescence signal values were measured using a microplate reader (PHERAstar FSX). The results were processed according to formula (2), the survival rate of the compound at different concentrations was calculated, and the IC50 value of the compound with a survival rate of 50% was calculated using origin9.2 software with DoseResp function, wherein RLU compound was the readout of the treated group, and RLU control was the average value of the DMSO vehicle control group.
(In general: Cellular ATP, detected with luciferase, serves as a proxy for viable cell number.)

Each structure is given as a SMILES string. Where a name gives a salt, the structure may show the parent alone. Read-outs that look alike come from different tables or passages of the source.

Regarding `Cn1c(=O)n(C2CCC(=O)NC2=O)c2cccc(CN3CC(N4CCC(N5CCC6(CCN(c7nccc(COc8ccc(C(C)(C)c9cc(Cl)c(OCCCl)c(C#N)c9)cc8)n7)CC6)CC5)CC4)C3)c21` (stereo not shown) [Compound 31 trifluoroacetate, 3-chloro-2-(2-chloroethoxy)-5-(2-(4-((2-(9-(1-(1-((1-(2,6-dioxopiperidin-3-yl)-3-methyl-2-oxo-2,3-dihydro-1H-benzo[d]imidazol-4-yl)methyl)azetidin-3-yl)piperidin-4-yl)-3,9-diazaspiro[5.5]undecan-3-yl)pyrimidin-4-yl)methoxy)phenyl)propan-2-yl)benzonitrile], the IC50 (Homo sapiens, 22Rv1, 168 h) amounted to 401 nM.

On to `CC(C)(c1ccc(OCc2ccnc(N3CCN(C4CN(C5CCCN(c6ccc7c(c6)C(=O)N(C6CCC(=O)NC6=O)C7=O)C5)C4)CC3)n2)cc1)c1cc(Cl)cc(C#N)c1` (stereo not shown) [Compound 52 trifluoroacetate, 3-chloro-5-(2-(4-((2-(4-(1-(1-(2-(2,6-dioxopiperidin-3-yl)-1,3-dioxoisoindolin-5-yl)piperidin-3-yl)azetidin-3-yl)piperazin-1-yl)pyrimidin-4-yl)methoxy)phenyl)propan-2-yl)benzonitrile], for which the IC50 (Homo sapiens, 22Rv1, 168 h) turned out to be 956 nM.

`CC(C)(c1ccc(OCc2ccnc(N3CCC(CN4CCC5(CC4)CCN(c4ccc6c(c4)C(=O)N(C4CCC(=O)NC4=O)C6=O)CC5)C3)n2)cc1)c1cc(Cl)cc(C#N)c1` (stereo not shown) [Compound 86 trifluoroacetate, 3-chloro-5-(2-(4-((2-(3-((9-(2-(2,6-dioxopiperidin-3-yl)-1,3-dioxoisoindolin-5-yl)-3,9-diazaspiro[5.5]undecan-3-yl)methyl)pyrrolidin-1-yl)pyrimidin-4-yl)methoxy)phenyl)propan-2-yl)benzonitrile]: the IC50 (Homo sapiens, 22Rv1, 168 h) was determined as 278 nM.

As for `CC(C)(c1ccc(OCc2ccnc(N3C[C@@H]4CN(C5CCN(CC6CCN(c7ccc8c(c7)C(=O)N(C7CCC(=O)NC7=O)C8=O)CC6)CC5)C[C@@H]4C3)n2)cc1)c1cc(Cl)c(OCCCl)c(C#N)c1` (stereo partly drawn) [Compound 16, 3-chloro-2-(2-chloroethoxy)-5-(2-(4-((2-((3aR,6aS)-5-(1-((1-(2-(2,6-dioxopiperidin-3-yl)-1,3-dioxoisoindolin-5-yl)piperidin-4-yl)methyl)piperidin-4-yl)hexahydropyrrolo[3,4-c]pyrrol-2(1H)-yl)pyrimidin-4-yl)methoxy)phenyl)propan-2-yl)benzonitrile], the IC50 was 802 nM.

`CC(C)(c1ccc(OCc2ccnc(N3CCC(C4CCN(CC5CCN(c6ccc7c(c6)C(=O)N(C6CCC(=O)NC6=O)C7=O)CC5)CC4)CC3)n2)cc1)c1cc(Cl)cc(C#N)c1` (stereo not shown) [Compound 38 trifluoroacetate, 3-chloro-5-(2-(4-((2-(1′-((1-(2-(2,6-dioxopiperidin-3-yl)-1,3-dioxoisoindolin-5-yl)piperidin-4-yl)methyl)-[4,4′-bipiperidin]-1-yl)pyrimidin-4-yl)methoxy)phenyl)propan-2-yl)benzonitrile]: the IC50 (Homo sapiens, 22Rv1, 168 h) was found to be 883 nM.

As to `Cn1c(=O)n(C2CCC(=O)NC2=O)c2ccc(C3CCN(C4CC5(CCN(c6nccc(COc7ccc(C(C)(C)c8cc(Cl)cc(C#N)c8)cc7)n6)CC5)C4)CC3)cc21` (stereo not shown) [Compound 106 trifluoroacetate, 3-chloro-5-(2-(4-((2-(2-(4-(1-(2,6-dioxopiperidin-3-yl)-3-methyl-2-oxo-2,3-dihydro-1H-benzo[d]imidazol-5-yl)piperidin-1-yl)-7-azaspiro[3.5]nonan-7-yl)pyrimidin-4-yl)methoxy)phenyl)propan-2-yl)benzonitrile], the IC50 (Homo sapiens, 22Rv1, 168 h) was 550 nM.

With `CC(C)(c1ccc(OCc2ccnc(N3CC4(CCN(C5CCN(C6CN(c7ccc8c(c7)C(=O)N(C7CCC(=O)NC7=O)C8=O)C6)CC5)CC4)C3)n2)cc1)c1cc(Cl)c(OCCCl)c(C#N)c1` (stereo not shown) [Compound 23, 3-chloro-2-(2-chloroethoxy)-5-(2-(4-((2-(7-(1-(1-(2-(2,6-dioxopiperidin-3-yl)-1,3-dioxoisoindolin-5-yl)azetidin-3-yl)piperidin-4-yl)-2,7-diazaspiro[3.5]nonan-2-yl)pyrimidin-4-yl)methoxy)phenyl)propan-2-yl)benzonitrile], the IC50 was found to be 500 nM.

As to `CC(C)(c1ccc(OCc2ccnc(N3CC4CN(C5CCN(CC6CCN(c7ccc8c(c7)C(=O)N(C7CCC(=O)NC7=O)C8=O)CC6)CC5)CC4C3)n2)cc1)c1cc(Cl)cc(C#N)c1` (stereo not shown) [Compound 82 trifluoroacetate, 3-chloro-5-(2-(4-((2-(5-(1-((1-(2-(2,6-dioxopiperidin-3-yl)-1,3-dioxoisoindolin-5-yl)piperidin-4-yl)methyl)piperidin-4-yl)hexahydropyrrolo[3,4-c]pyrrol-2(1H)-yl)pyrimidin-4-yl)methoxy)phenyl)propan-2-yl)benzonitrile], the IC50 (Homo sapiens, 22Rv1, 168 h) worked out at 413 nM.

For the compound `CC(C)(c1ccc(OCc2ccnc(N3CCC(CN4CCN(c5cccc6c5C(=O)N(C5CCC(=O)NC5=O)C6=O)CC4)CC3)n2)cc1)c1cc(Cl)cc(C#N)c1` (stereo not shown) [Compound 39 trifluoroacetate, 3-chloro-5-(2-(4-((2-(4-((4-(2-(2,6-dioxopiperidin-3-yl)-1,3-dioxoisoindolin-4-yl)piperazin-1-yl)methyl)piperidin-1-yl)pyrimidin-4-yl)methoxy)phenyl)propan-2-yl)benzonitrile], the IC50 (Homo sapiens, 22Rv1, 168 h) came out at 936 nM.

Turning to `CC(C)(c1ccc(OCc2ccnc(N3CCC(N4CCC(CN5CCN(c6cccc7c6C(=O)N(C6CCC(=O)NC6=O)C7=O)CC5)CC4)CC3)n2)cc1)c1cc(Cl)cc(C#N)c1` (stereo not shown) [Compound 40 trifluoroacetate, 3-chloro-5-(2-(4-((2-(4-((4-(2-(2,6-dioxopiperidin-3-yl)-1,3-dioxoisoindolin-4-yl)piperazin-1-yl)methyl)-[1,4′-bipiperidin]-1′-yl)pyrimidin-4-yl)methoxy)phenyl)propan-2-yl)benzonitrile], the IC50 (Homo sapiens, 22Rv1, 168 h) turned out to be 764 nM.

`Cn1c(=O)n(C2CCC(=O)NC2=O)c2cccc(CN3CC(N4CCC5(CCN(c6nccc(COc7ccc(C(C)(C)c8cc(Cl)c(OCCCl)c(C#N)c8)cc7)n6)CC5)CC4)C3)c21` (stereo not shown) [Compound 29 trifluoroacetate, 3-chloro-2-(2-chloroethoxy)-5-(2-(4-((2-(9-(1-((1-(2,6-dioxopiperidin-3-yl)-3-methyl-2-oxo-2,3-dihydro-1H-benzo[d]imidazol-4-yl)methyl)azetidin-3-yl)-3,9-diazaspiro[5.5]undecan-3-yl)pyrimidin-4-yl)methoxy)phenyl)propan-2-yl)benzonitrile]: the IC50 (Homo sapiens, 22Rv1, 168 h) worked out at 788 nM.

Turning to `CC(C)(c1ccc(OCc2ccnc(N3CCN(C4CN(C5CCN(c6ccc7c(c6)C(=O)N(C6CCC(=O)NC6=O)C7=O)C5)C4)CC3)n2)cc1)c1cc(Cl)cc(C#N)c1` (stereo not shown) [Compound 55 trifluoroacetate, 3-chloro-5-(2-(4-((2-(4-(1-(1-(2-(2,6-dioxopiperidin-3-yl)-1,3-dioxoisoindolin-5-yl)pyrrolidin-3-yl)azetidin-3-yl)piperazin-1-yl)pyrimidin-4-yl)methoxy)phenyl)propan-2-yl)benzonitrile], the IC50 (Homo sapiens, 22Rv1, 168 h) is 519 nM.

On to `CC(C)(c1ccc(OCc2ccnc(N3CC4(CCN(CC5CCN(c6ccc7c(c6)C(=O)N(C6CCC(=O)NC6=O)C7=O)CC5)CC4)C3)n2)cc1)c1cc(Cl)cc(C#N)c1` (stereo not shown) [Compound 69 trifluoroacetate, 3-chloro-5-(2-(4-((2-(7-((1-(2-(2,6-dioxopiperidin-3-yl)-1,3-dioxoisoindolin-5-yl)piperidin-4-yl)methyl)-2,7-diazaspiro[3.5]nonan-2-yl)pyrimidin-4-yl)methoxy)phenyl)propan-2-yl)benzonitrile], for which, for the setting “Homo sapiens, 22Rv1, 168 h”, the IC50 is 371 nM.

As for `CC(C)(c1ccc(OCc2ccnc(N3CCN(CC4CCN(C5CC6(CCN(c7ccc8c(c7)C(=O)N(C7CCC(=O)NC7=O)C8=O)CC6)C5)C4)CC3)n2)cc1)c1cc(Cl)cc(C#N)c1` (stereo not shown) [Compound 66 trifluoroacetate, 3-chloro-5-(2-(4-((2-(4-((1-(7-(2-(2,6-dioxopiperidin-3-yl)-1,3-dioxoisoindolin-5-yl)-7-azaspiro[3.5]nonan-2-yl)pyrrolidin-3-yl)methyl)piperazin-1-yl)pyrimidin-4-yl)methoxy)phenyl)propan-2-yl)benzonitrile], the IC50 (Homo sapiens, 22Rv1, 168 h) was determined as 584 nM.

For the compound `CC(C)(c1ccc(OCc2ccnc(N3CCC(CN4CCN(c5ccc6c(c5)C(=O)N(C5CCC(=O)NC5=O)C6=O)CC4)CC3)n2)cc1)c1cc(Cl)cc(C#N)c1` (stereo not shown) [Compound 41 trifluoroacetate, 3-chloro-5-(2-(4-((2-(4-((4-(2-(2,6-dioxopiperidin-3-yl)-1,3-dioxoisoindolin-5-yl)piperazin-1-yl)methyl)piperidin-1-yl)pyrimidin-4-yl)methoxy)phenyl)propan-2-yl)benzonitrile], the IC50 (Homo sapiens, 22Rv1, 168 h) turned out to be 633 nM.

Take `CC(C)(c1ccc(OCc2ccnc(N3C[C@@H]4CN(C5CCN(C6CN(c7ccc8c(c7)C(=O)N(C7CCC(=O)NC7=O)C8=O)C6)CC5)C[C@@H]4C3)n2)cc1)c1cc(Cl)c(OCCCl)c(C#N)c1` (stereo partly drawn) [Compound 17, 3-chloro-2-(2-chloroethoxy)-5-(2-(4-((2-((3aR,6aS)-5-(1-(1-(2-(2,6-dioxopiperidin-3-yl)-1,3-dioxoisoindolin-5-yl)azetidin-3-yl)piperidin-4-yl)hexahydropyrrolo[3,4-c]pyrrol-2(1H)-yl)pyrimidin-4-yl)methoxy)phenyl)propan-2-yl)benzonitrile]: the IC50 stood at 1020 nM.
